What all share (format): physicochemical
The nature of series [1]: Color fastness against light, Xe lamp irradiation of recorded image. The settings on record: Xe lamp 17,000 lux, 3 days; portion with initial reflection density 1.0. The text has this:
Next, the thermal transfer image accepting materials after such recording were irradiated with a Xe lamp (17,000 lux) for 3 days to evaluate the color fastness. More specifically, a portion showing a status-A reflection density of 1.0 before the irradiation was again measured for the status-A reflection density after the irradiation, which was expressed in a residual rate (in percent) to the pre-irradiation reflection density.

A short description of series [2]: Suitability in ink production (solubility of coating composition for dye donating layer). The source says: Suitability in Ink Production:
∘ coating composition for the thermal transfer dye donating layer has a good solubility;
Δ time-consuming heating is necessary to dissolve the coating composition for the thermal transfer dye donating layer; and
X incomplete solubilization of the coating composition for the thermal transfer dye donating layer having a undissolved portion of the dye crystal.

A short description of series [3]: Absorption characteristic in ethyl acetate. The source says:
FIG. 1 is a spectrum chart showing an absorption characteristic in ethyl acetate of Compound 9 of the present invention where optical density of the transmitted light through a cell having the light path length of 1 cm is 1.0. Wave lengths giving the maximum absorption (λmax) are 428 nm for Compound 9, 440 nm for Compound 18, 438 nm for Compound 31, 442 nm for Compound 32, 435 nm for Compound 33 and 434 nm for Compound 3.

As to `CCSc1nsc(N=Nc2c(C)nn3c(C(C)(C)C)n[nH]c23)n1` [Comparative Compound “a”, reference compound], the “Color Fastness (residual rate of status-A reflection density)” value in series [1] turned out to be 89%. For the same compound, the “Suitability for ink production (in words)” value in series [2] is “inferior”.

As for `CCSc1nsc(N=Nc2c(C)nn3nc(C)[nH]c23)n1` [Compound 3], the “Wave length giving the maximum absorption (λmax)” value in series [3] is reported as 434 nm.

For `CSc1nsc(N=Nc2c(C(C)(C)C)nn3nc(C(C)C)[nH]c23)n1` [Compound 4], the “Color Fastness (residual rate of status-A reflection density)” value in series [1] was 90%.

As to `CCCc1nn2nc(C(C)(C)C)c(N=Nc3nc(SC)ns3)c2[nH]1` [Compound 5], the “Color Fastness (residual rate of status-A reflection density)” value in series [1] is listed as 91%.

Regarding `CSc1nsc(N=Nc2c(-c3ccccc3)nn3nc(C(C)C)[nH]c23)n1` [Compound 7], in series [1], the “Color Fastness (residual rate of status-A reflection density)” value was 90%.

Regarding `CC(C)c1nn2nc(-c3ccccc3Cl)c(N=Nc3nc(-c4ccccc4)ns3)c2[nH]1` [Compound 9], the “Color Fastness (residual rate of status-A reflection density)” value in series [1] was 92%. In series [3], the “Wave length giving the maximum absorption (λmax)” value is 428 nm.

As to `Cc1nn2nc(C(C)(C)C)c(N=Nc3nc(-c4ccccc4)ns3)c2[nH]1` [Compound 10], in series [1], the “Color Fastness (residual rate of status-A reflection density)” value was 90%.

Consider `CCOc1nn2nc(C)[nH]c2c1N=Nc1nc(-c2ccc(C(F)(F)F)cc2)ns1` [Compound 11], for which, in series [1], the “Color Fastness (residual rate of status-A reflection density)” value was 88%.

In the case of `CSc1nsc(N=Nc2c(C(C)(C)C)nn3nc(C(C)CN4C(=O)c5ccccc5C4=O)[nH]c23)n1` (stereo not drawn) [Compound 15], the “Color Fastness (residual rate of status-A reflection density)” value in series [1] is recorded as 89%.

Regarding `CCS(=O)(=O)c1nsc(N=Nc2c(-c3ccccc3Cl)nn3nc(C(C)C)[nH]c23)n1` [Compound 18], the “Color Fastness (residual rate of status-A reflection density)” value in series [1] amounted to 91%. Moreover, the “Wave length giving the maximum absorption (λmax)” value in series [3] was found to be 440 nm.

In the case of `COc1ccc(-c2nsc(N=Nc3c(C(C)(C)C)nn4nc(C(C)C)[nH]c34)n2)cc1` [Compound 20], the “Color Fastness (residual rate of status-A reflection density)” value in series [1] amounted to 88%.

On to `Cc1nn2nc(C(C)C)c(N=Nc3nc(-c4ccccc4)ns3)c2[nH]1` [Compound 21], for which, in series [1], the “Color Fastness (residual rate of status-A reflection density)” value is given as 87%.

For `CSc1nsc(N=Nc2c(C(C)(C)C)nn3nc(C(C)CN4C(=O)C=CC4=O)[nH]c23)n1` (stereo not drawn) [Compound 25], the “Color Fastness (residual rate of status-A reflection density)” value in series [1] was 90%.

As for `CCSc1nsc(N=Nc2c(C(C)(C)C)nn3nc(C(C)C)[nH]c23)n1` [Compound 31], the “Color Fastness (residual rate of status-A reflection density)” value in series [1] is 90%. The “Wave length giving the maximum absorption (λmax)” value in series [3] is recorded as 438 nm.

Regarding `CCS(=O)(=O)c1nsc(N=Nc2c(C(C)(C)C)nn3nc(C(C)C)[nH]c23)n1` [Compound 32], the “Color Fastness (residual rate of status-A reflection density)” value in series [1] was found to be 93%. For the same compound, in series [3], the “Wave length giving the maximum absorption (λmax)” value amounted to 442 nm.

As for `CCSc1nsc(/N=N/c2c(-c3ccccc3Cl)nn3nc(C(C)C)[nH]c23)n1` [Compound 34], in series [1], the “Color Fastness (residual rate of status-A reflection density)” value came out at 91%.

The record behind these values is US6458194B1, “Azo dye compound having 1,2,4-triazole as the azo component” (Fuji Photo Film Co., Ltd., priority 1999, dated 2002).
